Data reported in patent US6683092B1, “[3-(C5-14ALKYL-2-OXO-1,2,3,4-TETRAHYDRO-QUINOLIN-6-YL)-3-OXO-PROPENYL]-PHENYL AND [3-(C5-14ALKYL-2-OXO-1,2,3,4- TETRAHYDRO-QUINOLIN-6-YL)-3-OXO-PROPENYL]-HETEROARYL DERIVATIVES HAVING ANTI-TUMOR ACTIVITY” (Allergan, Inc., priority 2003, dated 2004).
pEC50: −log10 of the molar value. Entries after “also recorded” stand apart in the source; their conditions may differ.

Assays:
[1] = test system: breast cancer cell line MCF-7; test: Colony (clonogenic) assay, serum-free, MCF-7; format: cell-based; conditions: 14 days, concentration giving 50% inhibition of cell growth
Description: (§1) Specifically, the following assay procedure was employed to test certain exemplary compounds of the invention in the breast cancer cell line known in the art as MCF-7 and in the prostrate cancer cell line known in the art as LNCaP.
(§2) Set 4 mL cultures in 60 mm petri dishes
(medium for MCF-7—DMEN with L-glutamine & without glucose)
(§3) Seeding density: LNCaP serum-free 1200 cells/dish; MCF-7 serum-free 1400 cells/dish
(§4) Add compound immediately after setting cultures and then change the media and re-feed with compound at day 2 (or day 3 for assays set on Fridays).
(§5) Incubated for 14 days (serum free lines)
(§6) 2. fix with 10% formal saline for ˜30 mins
(§7) 3. remove formal saline and wash with 2-3 mLs PBS
(§8) 4. stain with 1% methylene blue in PBS, leave this on for ˜1 hr
(§9) 5. remove stain and wash off in tap water
(§10) 6. dry overnight and count the colonies
(§11) The results obtained in these assays are shown in Table 1, expressed in EC50 numbers, where EC50 is the concentration (expressed as nanomolar) of the compound that results in 50% inhibition of the growth of the cells.

[2] = test system: prostate cancer cell line LNCaP; test: Colony (clonogenic) assay, serum-free, LNCaP; format: cell-based; conditions: 14 days, concentration giving 50% inhibition of cell growth; for pEC50: Homo sapiens, LNCaP, 336 h
Description: as §1, §2
(medium for LNCaP—[…] with ITS & linoleic acid)
as §3, §4, §5, §6, §7, §8, §9, §10, §11

With “4-[3-(1-Phenylethyl-4,4-dimethyl-2-oxo-1,2,3,4-tetrahydro-quinolin-6-yl)-3-oxo-propenyl]-benzoic acid [Compound 8e]” the pEC50 [1] was 8.05 and the “EC50 for Prostate Cancer Cell Line (LNCaP)” value [2] was “Not Active”.

Work on `CCCCCCN1C(=O)CC(C)(C)c2cc(C(=O)C=Cc3ccc(C(=O)O)cc3)ccc21` [Compound 8a, 4-[3-(1-Hexyl-4,4-dimethyl-2-oxo-1,2,3,4-tetrahydro-quinolin-6-yl)-3-oxo-propenyl]-benzoic acid] yielded a pEC50 ([1]; Homo sapiens, MCF7, 336 h) of 8.05 and a pEC50 [2] of 7.05.

Work on `CCCCCCCN1C(=O)CC(C)(C)c2cc(C(=O)C=Cc3ccc(C(=O)O)cc3)ccc21` [Compound 8b, 4-[3-(1-Heptyl-4,4-dimethyl-2-oxo-1,2,3,4-tetrahydro-quinolin-6-yl)-3-oxo-propenyl]-benzoic acid] yielded a pEC50 ([1]; Homo sapiens, MCF7, 336 h) of 8.05 and a pEC50 [2] of 6.81.

`CCCCCCCCN1C(=O)CC(C)(C)c2cc(C(=O)C=Cc3ccc(C(=O)O)cc3)ccc21` [Compound 8c, 4-[3-(1-Octyl-4,4-dimethyl-2-oxo-1,2,3,4-tetrahydro-quinolin-6-yl)-3-oxo-propenyl]-benzoic acid] showed a pEC50 ([1]; Homo sapiens, MCF7, 336 h) of 7.52 and a pEC50 [2] of 7.28.

`CCCCCCCCCN1C(=O)CC(C)(C)c2cc(C(=O)C=Cc3ccc(C(=O)O)cc3)ccc21` [Compound 8d, 4-[3-(1-Nonyl-4,4-dimethyl-2-oxo-1,2,3,4-tetrahydro-quinolin-6-yl)-3-oxo-propenyl]-benzoic acid] was tested, and the pEC50 ([1]; Homo sapiens, MCF7, 336 h) was 8.52 and the pEC50 [2] was 6.81.

In the case of `CN1C(=O)CC(C)(C)c2cc(C(=O)C=Cc3ccc(C(=O)O)cc3)ccc21` [Compound 8f, 4-[3-(1-Methyl-4,4-dimethyl-2-oxo-1,2,3,4-tetrahydro-quinolin-6-yl)-3-oxo-propenyl]-benzoic acid], the “EC50 for Breast Cancer Cell Line (MCF-7)” value [1] was “inactive; also recorded: Not Active” and the “EC50 for Prostate Cancer Cell Line (LNCaP)” value [2] was “inactive; also recorded: Not Active”.
